Columns and labels:
[1] = system: rat hepatic microsomal PTPases; details: 50 μM compound
[2] = target: T1, Human recombinant PTP1B (hPTP1B) (Homo sapiens, UniProt P18031); format: biochemical
T1 construct: made in house
T1 sequence (P18031 1-435): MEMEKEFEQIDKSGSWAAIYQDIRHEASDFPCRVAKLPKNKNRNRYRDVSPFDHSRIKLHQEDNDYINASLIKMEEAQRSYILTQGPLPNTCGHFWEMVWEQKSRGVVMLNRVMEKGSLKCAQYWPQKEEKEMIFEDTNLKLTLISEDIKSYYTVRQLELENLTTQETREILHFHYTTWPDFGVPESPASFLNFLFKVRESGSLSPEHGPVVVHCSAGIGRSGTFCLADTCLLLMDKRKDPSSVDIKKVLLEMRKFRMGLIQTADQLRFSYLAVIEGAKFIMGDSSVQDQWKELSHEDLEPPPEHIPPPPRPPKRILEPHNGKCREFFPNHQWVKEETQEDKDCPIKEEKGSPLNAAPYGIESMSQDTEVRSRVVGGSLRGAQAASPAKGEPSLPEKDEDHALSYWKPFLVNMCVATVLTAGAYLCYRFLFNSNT

diabetic (ob/ob) mice = test: Blood glucose lowering in diabetic (ob/ob) mice; format: in vivo, mouse; details: for % Change Glucose from Vehicle: plasma glucose
From the text: The procedures used and results obtained are briefly described below.
The non-insulin dependent diabetic (NIDDM) syndrome can be typically characterizes by obesity, hyperglycemia, abnormal insulin secretion, hyperinsulinemia and insulin resistance.
In each test procedure, mice [Male or female ob/ob (C57 B1/6J) and their lean litermates (ob/+ or +/+, Jackson Laboratories) ages 2 to 5 months (10 to 65 g)] of a similar age were randomized according to body weight into 4 groups of 10 mice. The mice were housed 5 per cage and are maintained on normal rodent chow with water ad libitum. Mice received test compound daily by gavage (suspended in 0.5 ml of 0.5% methyl cellulose); dissolved in the drinking water; or admixed in the diet. The dose of compounds given ranges from 2.5 to 200 mg/kg body weight/day. The dose is calculated based on the fed weekly body weight and is expressed as active moiety. […] Control mice received vehicle only.
On the morning of Day 4, 7 or 14 two drops of blood (approximetly 50 ul) were collected into sodium fluoride containing tubes either from the tail vein or after decapitation. For those studies in which the compound was administered daily by gavage the blood samples were collected 0 and 4 hours after compound administration. The plasma was isolated by centrifugation and the concentration of glucose is measured enzymatically on an Abbott V. P. Analyzer.
For each mouse, the percentage change in plasma glucose on Day 4, 7 or 14 is calculated relative to the mean plasma glucose of the vehicle treated mice. Analysis of variance followed by Dunett's Comparison Test (one-tailed) are used to estimate the significant difference between the plasma glucose values from the control group and the individual compound treated groups (CMS SAS Release 5.18).

[3] = dose 25 mg/Kg, (a) = no significant activity (p < 0.05) at this dose

Row | Structure (SMILES) | % Change from Control [1] [%] | melting point | IC50 [2] [nM] | % Change Glucose from Vehicle (diabetic (ob/ob) mice; [3]) | % Change Insulin from Vehicle (diabetic (ob/ob) mice; dose 100 mg/Kg) | % Change Glucose from Vehicle (diabetic (ob/ob) mice; dose 100 mg/Kg)
1 | Cc1sc2c(Br)c3ccccc3c(-c3cc(C(C)C)c(OCC(=O)O)c(C(C)C)c3)c2c1C [Example 53, [4-(9-Bromo-2,3-dimethyl-naphtho[2,3-b]thiophen-4-yl)-2,6-diisopropyl-phenoxy]-acetic acid] | −81.83 | 228 to 231 °C | 204 | – | – | –
2 | COC(=O)[C@@H](Cc1ccccc1)Oc1c(Br)cc(-c2c3ccccc3c(Br)c3sc(C)c(C)c23)cc1Br [Example 28, (R)-2-[2,6-Dibromo-4-(9-bromo-2,3-dimethyl-naphtho[2,3-b]thiophen4-yl)-phenoxy]3-phenyl-propionic acid methyl ester] | – | 174 to 175 °C | – | – | – | –
3 | Cc1sc2c(Br)c3ccccc3c(-c3cc(Br)c(O)c(NC(=O)OC(C)(C)C)c3)c2c1C [Example 56, [3-Bromo-5-(9-bromo-2,3-dimethyl-naphtho[2,3-b]thiophen-4-yl)-2-hydroxy-phenyl]-carbamic Acid tert-Butyl Ester] | – | 205 to 207 °C | 489 | – | – | –
4 | Cc1sc2c(Br)c3ccccc3c(-c3cc(Br)c(O)c(C(C)C)c3)c2c1C [Example 39, 2-Bromo-4-(9-bromo-2,3-dimethyl-naphtho[2,3-b]thiophen-4-yl)-6-isopropyl-phenol] | – | 157 to 162 °C | 1740 | – | – | –
5 | Cc1c(CN2CCOCC2)sc2c(Br)c3ccccc3c(-c3cc(Br)c(O)c(Br)c3)c12 [Example 19, 2,6-Dibromo-4-(9-bromo-3-methyl-2-morpholin-4-ylmethyl-naphtho[2,3-b]thiophen-4-yl)-phenol] | −30.40 | 237 to 240 °C | 697 | – | – | –
6 | COC(=O)CNc1cc(-c2c3ccccc3c(Br)c3sc(C)c(C)c23)cc(Br)c1OC [Example 59, [3-Bromo-5-(9-bromo-2,3-dimethyl-naphtho[2,3-b]thiophen-4-yl)-2-methoxy-phenylamino]-acetic Acid Methyl Ester] | – | 194 to 198 °C | 2200 | – | – | –
7 | Cc1sc2c(Br)c3ccccc3c(-c3cc(Br)c(O[C@H](Cc4ccccc4)C(=O)O)c(C4CCCC4)c3)c2c1C [Example 48] | −44.69 | 167 to 168.5 °C | 83 | −20.1 ^ % | – | –
8 | Cc1sc2c(I)c3ccccc3c(-c3ccc(OS(C)(=O)=O)cc3)c2c1C [Example 11, Methanesulfonic acid 4-(9-iodo-2,3-dimethyl-naphtho[2,3-b]thiophen-4-yl)-phenyl ester] | – | 212 to 213 °C | – | – | – | –
9 | CC(=O)Oc1ccc(-c2c3ccccc3cc3sc(C)c(C)c23)cc1 [Example 6, Acetic Acid 4-(2,3-dimethyl-naphtho[2,3-b]thiophen-4-yl)-phenyl ester] | – | 147 to 150 °C | – | – | – | –
10 | Cc1sc2c(Br)c3ccccc3c(-c3cc(Br)c(O)c(Br)c3)c2c1C [Example 9, 2,6-Dibromo-4-(9-bromo-2,3-dimethyl-naphtho[2,3-b]thiophen-4-yl)-phenol] | −49.80 | 172 to 174 °C | 539 | – | – | –
11 | COc1c(Br)cc(-c2c3ccccc3c(Br)c3sc(C)c(C)c23)cc1NCC(=O)O [Example 60, [3-Bromo-5-(9-bromo-2,3-dimethyl-naphtho[2,3-b]thiophen-4-yl)-2-methoxy-phenylamino]-acetic Acid] | – | > 190 °C (dec.) | 1510 | – | – | –
12 | Cc1sc2c(Br)c3ccccc3c(-c3ccc(O)c(N)c3)c2c1C [Example 22, 2-Amino-4-(9-bromo-2,3-dimethyl-naphtho[2,3-b]thiophen-4-yl)-phenol] | −28.57 | 173 to 175 °C | – | – | – | –
13 | Cc1sc2c(Sc3ccccc3)c3ccccc3c(-c3cc(Br)c(O)c(Br)c3)c2c1C [Example 13, 2,6-Dibromo-4-(2,3-dimethyl-9-phenylsulfanyl-naphtho[2,3-b]thiophen-4-yl)-phenol] | – | 237 to 239 °C | – | – | – | –
14 | Cc1sc2c(Br)c3ccccc3c(-c3ccc(O)cc3)c2c1C [Example 8, 4-(9-Bromo-2,3-dimethyl-naphtho[2,3-b]thiophen-4-yl)-phenol] | – | 165 to 168 °C | – | – | – | –
15 | Cc1sc2c(Br)c3ccccc3c(-c3cc(Br)c(O)c([N+](=O)[O-])c3)c2c1C [Example 21, 2-Bromo-4-(9-bromo-2,3-dimethyl-naphtho[2,3-b]thiophen-4-yl)-6-nitro-phenol] | −63.12 | 129 to 130 °C | 381 | – | – | –
16 | COc1c(N)cc(-c2c3ccccc3c(Br)c3sc(C)c(C)c23)cc1Br [Example 58, 3-Bromo-5-(9-bromo-2,3-dimethyl-naphtho[2,3-b]thiophen-4-yl)-2-methoxy-phenylamine] | – | 198 to 200 °C | – | – | – | –
17 | Cc1sc2c(Br)c3ccccc3c(-c3cc(Br)c(O[C@H](Cc4ccccc4)C(=O)O)c(C(C)C)c3)c2c1C [Example 40, (R)-2-[2-Bromo-4-(9-bromo-2,3-dimethyl-naphtho[2,3-b]thiophen-4-yl)-6-isopropyl-phenoxy]-3-phenyl-propionic acid] | −83.88 | – | 110 | – | −90.80 ^ % | −28.20 ^ %
18 | Cc1sc2c(Br)c3ccccc3c(-c3ccc(O)c([N+](=O)[O-])c3)c2c1C [Example 20, 4-(9-Bromo-2,3-dimethyl-naphtho[2,3-b]thiophen-4-yl)-2-nitro-phenol] | 2.13 | 183 to 185 °C | – | – | – | –
19 | CC(=O)Oc1ccc(-c2c3ccccc3c(Br)c3sc(C)c(C)c23)cc1 [Example 7, Acetic Acid 4-(9-bromo-2,3-dimethyl-naphtho[2,3-b]thiophen-4-yl)-phenyl ester] | – | 190 to 191 °C | – | – | – | –
20 | CCC(C)c1cc(-c2c3ccccc3c(Br)c3sc(C)c(C)c23)cc(Br)c1O[C@H](Cc1ccccc1)C(=O)O (stereo partly drawn) [Example 42, (R)-2-[2-Bromo-4-(9-bromo-2,3-dimethyl-naphtho[2,3-b]thiophen-4-yl)-6-sec-butyl-phenoxy]-3-phenyl-propionic acid] | −63.41 | – | 89 | −32.5 ^ % | – | –
21 | Cc1sc2c(Br)c3ccccc3c(-c3cc(Br)c(O[C@@H](CCc4ccccc4)C(=O)O)c(Br)c3)c2c1C [Example 31, (S)-2-[2,6-Dibromo-4-(9-bromo-2,3-dimethyl-naphtho[2,3-b]thiophen-4-yl)-phenoxy]-4-phenyl-butyric acid] | −63.42 | 176 to 177 °C | 49 | – | – | –
22 | Cc1sc2c(Br)c3ccccc3c(-c3cc(Br)c(O[C@H](C)C(=O)O)c(Br)c3)c2c1C [Example 30, (R)-2-[2,6-Dibromo-4-(9-bromo-2,3-dimethylnaptho[2,3-b]thien-4-yl)-phenoxy]-propanoic acid] | −60.32 | 224 to 225 °C | 869 | – | – | –

Source: patent publication US6444670B2 (Wyeth, priority 1998, dated 2002)
